How the values were obtained:
db/db mice = experiment: Weekly fasting blood glucose in db/db mice given oral FTY720; format: in vivo, mouse
Procedure: FIG. 2A. Time course of the fasting glucose levels of db/db mice with or without oral FTY720. Open circle (∘), FTY720-untreated group; solid circle (●), pre-diabetic db/db mice (Fasting glucose<126 mg/dL) at six-week-old treated with 10 mg/kg FTY720; and triangle (▴), diabetic db/db mice (Fasting glucose≅430 mg/dL) at nine-week-old treated with 10 mg/kg FTY720 (n=4). I, Fasting glucose of mice at the age of 6 weeks to 12 weeks at the daily dosage of 10 mg/kg FTY720 (n=20 for the control and FTY720 treated pre-diabetic mice, respectively); II, fasting glucose levels of mice at the age of 12 weeks to 20 weeks at the daily dosage of 10 mg/kg FTY720 (n=6 for the control and FTY720 treated mice, respectively); III, fasting glucose levels of mice at the age of 20 weeks to 29 weeks at the […] dosage of 10 mg/kg FTY720 (n=2 for control and FTY720 treated mice, respectively); IV, fasting glucose levels from the mouse without FTY720 treatment after age of 29 weeks (n=2 for control and FTY720 treated mice, respectively).
Animals and Procedures—Five-week-old female db/db mice (BKS.Cg-m+/−Leprdb) were purchased from Jackson Laboratories (Bar Harbor, Me.). Mice were housed under controlled light (12 h light/12 h dark) and temperature conditions, and had free access to food (normal rodent chow) and water. All procedures were conducted in accordance with the guidelines on Animal Care and were approved by the Institutional Animal Care and Use Committee (IACUC) of Mount Sinai School of Medicine. After 1 week, the fasting glucose levels of the 6-week-old mice were measured. Mice with normal glucose levels (<126 mg/dl) were randomly divided into control and FTY720 treatment groups. Mice in the FTY720-treated group were fed 10 mg/kg of FTY720 daily by feeding tube and their food intake and body weight were measured twice a week. Fasting glucose levels were measured at the end of each week. At 12 weeks of age (when the mice had been treated for 6 weeks), all mice were subjected to metabolic analysis. After metabolic analysis, the pancreases were removed from the mice at 13 and 16 weeks of age for immunohistochemical analysis, quantitation of islet area, or islet isolation.
To rigorously determine the effects of FTY720 in vivo, pre-diabetic (age of six weeks, fasting glucose<126 mg/dL) and diabetic (age of 8-9 weeks, fasting glucose=430 mg/dL) female db/db mice were fed daily with FTY720 (+FTY720) for 29 weeks, and monitored by weekly fasting blood glucose measurements.

Bcl-2 = Bcl-2 mRNA levels in islets of db/db mice; format: in vivo, mouse; details: islets from FTY720-treated db/db mice vs untreated
Procedure: FIG. 10A. Levels of Bcl-2 mRNA levels of the db/db mice with (+FTY720) or without FTY720 (−FTY720) treatment. *p=0.0006
Islets were isolated from pancreases removed from the 13-week-old untreated and FTY720-treated db/db mice by Liberase (Roche Diagnostics) digestion, followed by discontinuous Ficoll gradient separation and manual stereomicroscopic selection to exclude contaminating tissues (30). Isolated islets (or INS-1 cells) were cultured in the medium (composed of RPMI 1640 medium supplemented with 10% fetal bovine serum, 2 mM L-glutamine, 1% sodium pyruvate, 50 μM β-mercaptoethanol, 100 units/ml of penicillin, and 100 μg/ml of streptomycin). For treatment of INS-1 cells, the cells were plated in RPMI medium overnight and changed to Hanks' balanced salt solution containing 2 mM glucose and 0.5% FBS overnight. Then the cells were treated with various conditions in the same medium for 24 hours.
To determine the mechanism of action (MOA) behind the increase in beta-cell mass observed in the treated mice, beta-cell survival was examined.

In the case of `CCCCCCCCc1ccc(CCC(N)(CO)CO)cc1` [FTY720, 2-amino-2-[2-(4-octylphenyl)ethyl]propane-1,3-diol], the “distribution of fasting glucose levels” value (db/db mice; all FTY720-treated db/db mice, after 6 weeks treatment) is reported as “normalized”, the “fasting glucose levels after FTY720 administration was ceased” value (db/db mice; db/db mice, administration ceased completely after 29-weeks treatment) is reported as “well controlled” and the fasting glucose levels (db/db mice; diabetic db/db mice (glucose ≧350 mg/dL), after six weeks of oral FTY720 10 mg/kg) is reported as “became normal”. For the same compound, the “fasting glucose levels (screen)” value (db/db mice; i.p. injected into or orally administrated to db/db mice) was “capable of normalizing”, the fasting glucose levels (db/db mice; pre-diabetic db/db mice (six weeks old, fasting glucose <126 mg/dL), 10 mg/kg FTY720 oral daily, untreated about 500 mg/dL by age 12 weeks) was roughly 126 mg/dL and the “Bcl-2 mRNA levels” value (Bcl-2) was “significantly increased”.

Source: patent US8653026B2, “Treatment of type 2 diabetes with FTY720” (Diapin Therapeutics LLC, priority 2011, dated 2014)
